Experimental findings from publication PMC10968680, “FHND004 inhibits malignant proliferation of multiple myeloma by targeting PDZ-binding kinase in MAPK pathway” (Aging (Albany NY), 2024) are described below.

Where a chain is given by its changes, count along the chain named.

In assay [1] the target is T1, PDZ-binding kinase (PBK) (Homo sapiens, UniProt Q96KB5, D125A/N124A).
T1 sequence (Q96KB5 1-322 N124A/D125A): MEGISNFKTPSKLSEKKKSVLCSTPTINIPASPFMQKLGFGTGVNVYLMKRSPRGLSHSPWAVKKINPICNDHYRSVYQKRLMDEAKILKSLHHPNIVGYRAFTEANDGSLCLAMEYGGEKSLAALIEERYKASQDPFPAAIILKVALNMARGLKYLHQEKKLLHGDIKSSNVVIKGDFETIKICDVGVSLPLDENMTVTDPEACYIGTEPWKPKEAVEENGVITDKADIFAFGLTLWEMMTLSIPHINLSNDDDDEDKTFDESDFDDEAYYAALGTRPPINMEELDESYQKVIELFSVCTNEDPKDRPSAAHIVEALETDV
As to the kind of experiment: microscale thermophoresis (MST).

In assay [2] the target is T2, PDZ-binding kinase (PBK) (Homo sapiens, UniProt Q96KB5).
T2 sequence (Q96KB5 1-322): T1 sequence (Q96KB5 1-322 N124A/D125A) with A124N, A125D
The assay is described as follows: microscale thermophoresis (MST) with RED-NHS labelled purified PBK. In general terms: MST reads how a fluorescent partner responds to local heating, with and without ligand.

One may read the Kd as the concentration at which binding is half-saturated. Lower therefore signals higher affinity. For the compound `C=CC(=O)Nc1cc(Nc2nccc(-c3cn4c5c(cccc35)CCC4)n2)c(OC)cc1N(C)CCN(C)C` [FHND004], the values for the dissociation constant Kd on PDZ-binding kinase (PBK) [1] and on PDZ-binding kinase (PBK) [2] were 99.5 µM and 3.1 µM, respectively.
